From patent US7196110B2, “N-substituted tricyclic 3-aminopyrazoles as inhibitors for the treatment of cell proliferative disorders” (Janssen Phamaceutica N.V., priority 2002, dated 2007) come the findings set out here.

Read-outs that look alike come from different tables or passages of the source.

The assay addresses T1, PDGF-receptor beta enzyme comprising the tyrosine kinase domain (Homo sapiens, UniProt P09619).
T1 construct: from amino acid 545 to 1106 of GenBank Access NO: AAA36427
The experiment in a line: Inhibition of PDGF-receptor kinase activity (cell-free, PLC1 peptide, 33P Flashplate). The format is biochemical. Particulars: for inhibition at 10 µM: compound at 10 uM, read-out: Percent Inhibition @ 10 uM. The essentials:
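The IC50 is the inhibitor level halving kinase activity relative to inhibitor-free wells, measured as 33P captured on a streptavidin-bound biotin-PLC1 peptide. The reaction ran 60 min at 30 °C in pH 8 Tris buffer with 1 mM DTT, 5 μM ATP and the 545–1106 kinase-domain enzyme.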

[1] abbreviates: PDGF-R kinase activity, read-out: IC50.

T1 sequence (P09619 545-1106): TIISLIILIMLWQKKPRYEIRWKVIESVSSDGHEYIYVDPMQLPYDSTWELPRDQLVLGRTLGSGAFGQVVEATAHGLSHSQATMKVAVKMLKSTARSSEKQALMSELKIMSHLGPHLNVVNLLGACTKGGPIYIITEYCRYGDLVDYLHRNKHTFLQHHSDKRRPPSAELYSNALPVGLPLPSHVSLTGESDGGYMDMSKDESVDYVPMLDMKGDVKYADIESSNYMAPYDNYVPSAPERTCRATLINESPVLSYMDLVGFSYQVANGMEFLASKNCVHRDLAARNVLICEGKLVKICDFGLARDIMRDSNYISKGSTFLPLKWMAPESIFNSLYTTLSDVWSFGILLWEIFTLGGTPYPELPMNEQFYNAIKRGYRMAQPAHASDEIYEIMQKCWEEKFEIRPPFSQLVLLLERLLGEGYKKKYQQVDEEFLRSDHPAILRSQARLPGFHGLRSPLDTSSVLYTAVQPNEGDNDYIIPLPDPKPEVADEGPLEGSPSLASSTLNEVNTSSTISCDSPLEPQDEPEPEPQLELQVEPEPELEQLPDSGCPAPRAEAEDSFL

With `FC(F)(F)Oc1ccc(Nc2[nH]nc3c2Cc2cc(Cl)ccc2-3)cc1` [Compound 194, (6-Chloro-2,4-dihydro-indeno[1,2-c]pyrazol-3-yl)-(4-trifluoromethoxy-phenyl)-amine], the inhibition – broadly, the relative decrease from the control value, in per cent – at 10 µM (PDGF-R kinase activity) turned out to be 87%. Further, the IC50 (commonly the concentration needed to halve the response being measured) under setting [1] came out at 2.61 µM. The corresponding values for `COc1cc2c(cc1OC)-c1n[nH]c(Nc3ccc4cn[nH]c4c3)c1C2` [Compound 37, (6,7-Dimethoxy-2,4-dihydro-indeno[1,2-c]pyrazol-3-yl)-(1H-indazol-6-yl)-amine] are 80% and 1.98 µM.

For the compound `COC(=O)n1nc2c(c1Nc1cccc(F)c1)Cc1cc(OC)c(OC)cc1-2` [Compound 434, 3-(3-Fluoro-phenylamino)-6,7-dimethoxy-4H-indeno[1,2-c]pyrazole-2-carboxylic acid methyl ester], under “PDGF-R kinase activity”, the inhibition at 10 µM came to 86%. Also, under setting [1], the IC50 is 0.503 µM.

Take `COC(=O)Cn1nc2c(c1Nc1cccc(F)c1)Cc1cc(OC)c(OC)cc1-2` [Compound 602, [3-(3-Fluoro-phenylamino)-6,7-dimethoxy-4H-indeno[1,2-c]pyrazol-2-yl]-acetic acid methyl ester]: for the setting “PDGF-R kinase activity”, the inhibition at 10 µM came to 40%.

As to `c1ccc(Nc2[nH]nc3c2Cc2sccc2-3)cc1` [Compound 94, (5,7-Dihydro-1-thia-4,5-diaza-cyclopenta[a]pentalen-6-yl)-phenyl-amine], where the note is “PDGF-R kinase activity”, the inhibition at 10 µM was found to be 95%. Also, the half-inhibitory concentration (IC50) under setting [1] is 0.415 µM. Turning to `COc1cc2c(cc1OC)-c1n[nH]c(Nc3ccc(Br)cn3)c1C2` [Compound 583, (5-Bromo-pyridin-2-yl)-(6,7-dimethoxy-2,4-dihydro-indeno[1,2-c]pyrazol-3-yl)-amine], the inhibition at 10 µM (PDGF-R kinase activity) stood at 82%. Besides, the 50% inhibitory concentration (IC50) (read-out: IC50 (μM) on PDGF-R kinase activity) came out at 1.1 µM. For the compound `Fc1cccc(Nc2[nH]nc3c2Cc2cc(F)ccc2-3)c1` [Compound 235, (6-Fluoro-2,4-dihydro-indeno[1,2-c]pyrazol-3-yl)-(3-fluoro-phenyl)-amine], under “PDGF-R kinase activity”, the inhibition at 10 µM is 86%. The 50% inhibitory concentration (IC50) under setting [1] is 0.211 µM. The corresponding values for `COc1cccc2c1Cc1c-2n[nH]c1Nc1cccc(OC(F)(F)F)c1` [Compound 149, (5-Methoxy-2,4-dihydro-indeno[1,2-c]pyrazol-3-yl)-(3-trifluoromethoxy-phenyl)-amine] are 27.5% and 8.37 µM.
